The source of these data is patent US20210337802A1, “COMPOSITION AND PROCESS FOR RECONDITIONING RESPIRATORS AND OTHER PERSONAL PROTECTIVE EQUIPMENT” (Tygrus, LLC, priority 2020, published 2021).

Common to all, as to format: physicochemical
Data set [1] in a line: Excess hydrogen ion concentration and pH after admixing with water. The following applies: 5 ml material in 5 ml deionized and distilled water, standard temperature and pressure. As to the method:
The excess hydrogen ion concentration is measured as greater than 15% by volume and the pH of the material is determined to be 1.

Data set [2] is described as follows: Acidity titration for hydrogen ion content (ASTM D1067 Test Method A). The following applies: titrated to pH 8.6; Example materials at 1% by volume in water.
Source text: The testing was completed using a Metrohm 826 Titrando equipped with a pH probe.
Data set [3] in a line: Freeze point by DSC (USP <891>). The following applies: Example materials at 1% by volume in water. For orientation: In DSC, transitions show as peaks or steps in heat flow.
Procedure: In order to evaluate freezing point, the samples are analyzed using a TA Instruments Q100 DSC equipped with an RCS-90 cooling system following USP <891>.
Data set [4] in a line: Conductivity of diluted samples (EPA method 120.1). Conditions: samples diluted with de-ionized water; Example materials at 1% by volume in water.
Source text: In order to test for conductivity the samples are each diluted with de-ionized water for analysis. The testing is completed using a Mettler Toledo Seven Excellence Meter with a conductivity probe following EPA method 120.1.

In turn, “hydrogen (1+), triaqua-μ3-oxotri sulfate (1:1) [Example I]” showed a pH in data set [1] of 1. For the same substance, the “Acidity @ pH 8.6” value in data set [2] turned out to be 1307.28 meq/L. Moreover, the “Melting Temperature (freeze point)” value in data set [3] is −9.07 °C. The substance further came in with a Conductivity in data set [4] of 551 mS/cm.
